# Laboratory results published in patent US20220324865A1 (Bayer Aktiengesellschaft, priority 2018, published 2022).
# Where a name gives a salt, the structure may show the parent alone.
# Target: T1, human EP3 receptor (Homo sapiens, UniProt P43115)
# T1 construct: expressed in transfected cells; host or cells: CHO K1 (Chinese Hamster Ovary), stably co-transfected with Galpha16 and mitochondrial clytin
# T1 sequence (P43115 1-390): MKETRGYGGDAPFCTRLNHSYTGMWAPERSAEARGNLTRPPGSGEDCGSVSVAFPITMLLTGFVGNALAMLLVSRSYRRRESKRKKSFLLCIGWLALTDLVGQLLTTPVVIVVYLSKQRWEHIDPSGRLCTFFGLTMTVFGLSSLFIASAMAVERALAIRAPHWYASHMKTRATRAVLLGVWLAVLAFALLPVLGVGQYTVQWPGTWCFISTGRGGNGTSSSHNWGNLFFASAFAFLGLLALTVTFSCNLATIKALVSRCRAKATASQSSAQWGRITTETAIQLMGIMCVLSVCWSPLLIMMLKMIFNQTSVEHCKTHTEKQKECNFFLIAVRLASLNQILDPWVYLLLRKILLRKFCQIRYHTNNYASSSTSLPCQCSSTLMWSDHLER
# Assay: Cellular in vitro assay for determining EP3 receptor activity (human EP3 cell line, sulprostone-stimulated calcium luminescence)
# Assay type: cell-based
# Conditions: CHO cells expressing human EP3 and mitochondrial Clytin; antagonist mode, sulprostone at EC50; read-out: EP3 CHO mtCLY ANTAG IC50
# Method in brief: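 CHO K1 cells stably expressing human EP3 with Gα16 and mitochondrial Clytin, loaded overnight with coelenterazine. Compounds added 10 min before sulprostone at its EC50; antagonism read immediately as reduced calcium-driven luminescence, quadruplicate points.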
row,Structure (SMILES),IC50
1,"Cc1cccc2ncc(-c3cn4nc(C(=O)N[C@H](C)c5ccccc5)c(C(C)C)c4c(=O)[nH]3)cc12 [Example 4-27, 6-(5-Methylquinolin-3-yl)-4-oxo-N-[(1R)-1-phenylethyl]-3-(propan-2-yl)-4,5-dihydropyrazolo[1,5-a]pyrazine-2-carboxamide]",1.2 nM
2,"Cc1cc(-c2cn3nc(C(=O)N[C@H]4CCN(C5CC5)C4)c(C4CC4)c3c(=O)[nH]2)ccc1Cl (single isomer, unassigned) [6-323]",3.3 nM
3,Cc1ccc(-c2[nH]c(=O)c3c(C4CC4)c(C(=O)N[C@@H](c4ccc(F)cc4)C(C)(C)O)nn3c2C#N)cc1C [6-617],7.65 nM
4,"CCc1ccc(C(C)NC(=O)c2nn3c(C)c(-c4ccc5ccccc5c4)[nH]c(=O)c3c2C)cc1 (stereo not drawn) [Example 3-26, N-[1-(4-Ethylphenyl)ethyl]-3,7-dimethyl-6-(2-naphthyl)-4-oxo-5H-pyrazolo[1,5-a]pyrazine-2-carboxamide]",4.15 nM
5,"COc1ccc(C(C)NC(=O)c2nn3cc(-c4cnc5cccc(C)c5c4)[nH]c(=O)c3c2C(C)C)cc1F (stereo not drawn) [Example 4-71, N-[1-(3-Fluoro-4-methoxyphenyl)ethyl]-3-isopropyl-6-(5-methyl-3-quinolyl)-4-oxo-5H-pyrazolo[1,5-a]pyrazine-2-carboxamide]",2.4 nM
6,O=C(N[C@H](CN1CC(F)C1)c1ccccc1)c1cc2c(=O)[nH]c(-c3ccc4ccccc4c3)cn2n1 [6-545],0.77 nM
7,"Cc1ccc(-c2cn3nc(C(=O)NCC(N)C(F)(F)F)c(C4CC4)c3c(=O)[nH]2)cc1F (single isomer, unassigned) [6-396]",3.05 nM
8,CC[C@@H](C)NC(=O)c1nn2cc(-c3ccc(C)c(C)c3)[nH]c(=O)c2c1C(F)(F)F [6-113],3.4 nM
9,CC[C@H](C)NC(=O)c1nn2cc(-c3ccc(Cl)c(C)c3)[nH]c(=O)c2c1C1CC1 [6-331],4.85 nM
10,Cc1ccc(-c2cn3nc(C(=O)NCc4ncc(C(F)(F)F)cc4Cl)cc3c(=O)[nH]2)cc1C [6-9],5.75 nM
11,"C[C@@H](NC(=O)c1cc2c(=O)[nH]c(-c3ccc4c(c3)N(C)CCO4)cn2n1)c1ccc(F)cc1 [Example 1-102, N-[(1R)-1-(4-Fluorophenyl)ethyl]-6-(4-methyl-3,4-dihydro-2H-1,4-benzoxazin-6-yl)-4-oxo-4,5-dihydropyrazolo[1,5-a]pyrazin-2-carboxamide]",1.35 nM
12,"Cc1cccc2ncc(-c3cn4nc(C(=O)NC(CN(C)C)c5ccccc5)c(C(C)C)c4c(=O)[nH]3)cc12 (stereo not drawn) [Example 4-1, N-[2-(Dimethylamino)-1-phenylethyl]-3-isopropyl-6-(5-methyl-3-quinolyl)-4-oxo-5H-pyrazolo[1,5-a]pyrazine-2-carboxamide]",1.75 nM
13,"Cc1cccc2ncc(-c3cn4nc(C(=O)NCc5ccncc5)c(C(C)C)c4c(=O)[nH]3)cc12 [Example 4-25, 6-(5-Methylquinolin-3-yl)-4-oxo-3-(propan-2-yl)-N-[(pyridin-4-yl)methyl]-4,5-dihydropyrazolo[1,5-a]pyrazine-2-carboxamide]",3.25 nM
14,CCCc1c(C(=O)N[C@H](C)c2ccc(F)cc2)nn2cc(-c3ccc(C)c(C)c3)[nH]c(=O)c12 [6-614],0.82 nM
15,"C[C@@H](NC(=O)c1cc2c(=O)[nH]c(-c3ccc4ccccc4c3)cn2n1)c1cccc2ccccc12 [Example 2-27, 6-(2-Naphthyl)-N-[(7R)-1-(1-naphthyl)ethyl]-4-oxo-4,5-dihydropyrazolo[1,5-a]pyrazine-2-carboxamide]",3.25 nM
16,CC(C)c1c(C(=O)N[C@@H](c2ccc(F)cc2)C(C)(C)O)nn2cc(-c3ccc(Cl)cc3)[nH]c(=O)c12 [6-672],1.7 nM
17,Cc1ccc(-c2cn3nc(C(=O)N[C@@H](C)C(C)C)c(C(F)(F)F)c3c(=O)[nH]2)cc1Cl [6-187],1.45 nM
18,"Cc1c(C(=O)NC2(c3ccc(F)cc3)CN(C)C2)nn2cc(-c3ccc4ccccc4c3)[nH]c(=O)c12 [Example 1-35, N-[3-(4-Fluorophenyl)-1-methylazetidin-3-yl]-3-methyl-6-(naphthalen-2-yl)-4-oxo-4,5-dihydropyrazolo[1,5-a]pyrazine-2-carboxamide hydrochloride]",4.25 nM
19,"Cc1ccc(-c2cn3nc(C(=O)NCC(C)(N)C(F)(F)F)c(C(F)(F)F)c3c(=O)[nH]2)cc1Cl (single isomer, unassigned) [6-171]",2.3 nM
20,"N#Cc1c(C(=O)N[C@H](CCO)c2ccc(F)cc2)nn2cc(-c3ccc4ccccc4c3)[nH]c(=O)c12 [Example 1-71, 3-Cyano-N-[(1R)-1-(4-fluorophenyl)-3-hydroxypropyl]-6-(naphthalen-2-yl)-4-oxo-4,5-dihydropyrazolo[1,5-a]pyrazine-2-carboxamide]",1.45 nM

row,Structure (SMILES),IC50
1,"CC(C)(O)[C@@H](NC(=O)c1nn2cc(-c3ccc(Cl)c(F)c3)[nH]c(=O)c2c1C1CC1)c1ccc(F)cc1 [Example 1-167, 6-(4-Chloro-3-fluorophenyl)-3-cyclopropyl-N-[(15)-1-(4-fluorophenyl)-2-hydroxy-2-methylpropyl]-4-oxo-4,5-dihydropyrazolo[1,5-a]pyrazine-2-carboxamide]",2.2 nM
2,Cc1ccc(-c2cn3nc(C(=O)N[C@@H](c4ccc(F)cc4)C(C)(C)O)c(C4CC(F)(F)C4)c3c(=O)[nH]2)cc1Cl [6-559],6.07 nM
3,"CC(NC(=O)c1cc2c(=O)[nH]c(-c3ccc4c(c3)OCCO4)cn2n1)c1ccc(F)cc1 (stereo not drawn) [Example 5-2, 6-(2,3-Dihydro-1,4-benzodioxin-6-yl)-N-[1-(4-fluorophenyl)ethyl]-4-oxo-5H-pyrazolo[1,5-a]pyrazine-2-carboxamide]",1.65 nM
4,O=C(N[C@@H](c1ccc(F)cc1)C(F)(F)CO)c1nn2cc(-c3ccc(C(F)(F)F)c(F)c3F)[nH]c(=O)c2c1C1CC1 [6-601],4.25 nM
5,C[C@H](CO)NC(=O)c1nn2cc(-c3ccc4ccccc4c3)[nH]c(=O)c2c1C(F)(F)F [6-525],7.8 nM
6,"COc1ccc(C(C)NC(=O)c2nn3cc(-c4cnc5cccc(C)c5c4)[nH]c(=O)c3c2C(C)C)cc1 (stereo not drawn) [Example 4-7, 3-Isopropyl-N-[1-(4-methoxyphenyl)ethyl]-6-(5-methyl-3-quinolyl)-4-oxo-5H-pyrazolo[1,5-a]pyrazine-2-carboxamide]",1.14 nM
7,"CC(NC(=O)c1nn2cc(-c3ccc4ccccc4c3)[nH]c(=O)c2c1C(F)(F)F)c1cnc(OCC(F)(F)F)cn1 (stereo not drawn) [Example 1-117, 6-(2-Naphthyl)-4-oxo-N-[1-[5-(2,2,2-trifluoroethoxy)pyrazin-2-yl]ethyl]-3-(trifluoromethyl)-5H-pyrazolo[1,5-a]pyrazine-2-carboxamide]",1.38 nM
8,"Cc1c(C(=O)NC(c2cccc(F)c2)C(F)F)nn2c(C)c(-c3ccc4ccccc4c3)[nH]c(=O)c12 (stereo not drawn) [Example 3-72, N-[2,2-Difluoro-1-(3-fluorophenyl)ethyl]-3,7-dimethyl-6-(2-naphthyl)-4-oxo-5H-pyrazolo[1,5-a]pyrazine-2-carboxamide]",2.1 nM
9,NC(=O)[C@H](NC(=O)c1cc2c(=O)[nH]c(-c3ccc4ccccc4c3)cn2n1)c1ccccc1 [6-84],5.4 nM
10,"CCN(CCO)CC(NC(=O)c1nn2cc(-c3cnc4cccc(C)c4c3)[nH]c(=O)c2c1C(C)C)c1ccccc1 (stereo not drawn) [Example 1-41, N-[2-[Ethyl(2-hydroxyethyl)amino]-1-phenylethyl]-3-isopropyl-6-(5-methyl-3-quinolyl)-4-oxo-5H-pyrazolo[1,5-a]pyrazine-2-carboxamide]",3.7 nM
11,"O=C(NC(c1ccc(F)cc1)C1(O)CC1)c1nn2cc(-c3ccc(Cl)c(F)c3)[nH]c(=O)c2c1C1CC1 (single isomer, unassigned) [6-98]",0.68 nM
12,Cc1ccc(-c2cn3nc(C(=O)NC(C(C)(C)O)C(F)(F)F)c(C4CC4)c3c(=O)[nH]2)cc1F (racemic) [6-394],6.65 nM
13,"C[C@@H](NC(=O)c1cc2c(=O)[nH]c(-c3ccc4ccccc4c3)cn2n1)c1ccc(C(F)(F)F)cc1 [Example 1-1, 6-(Naphthalen-2-yl)-4-oxo-N-{(1R)-1-[4-(trifluoromethyl)phenyl]ethyl}-4,5-dihydropyrazolo[1,5-a]-pyrazine-2-carboxamide]",1.6 nM
14,Cc1ccc(-c2cn3nc(C(=O)Nc4cccc(O)c4)c(C(F)(F)F)c3c(=O)[nH]2)cc1F [6-144],3.5 nM
15,Cn1cnc2cc(-c3cn4nc(C(=O)N[C@@H](c5ccc(F)cc5)C(C)(C)O)c(C5CC5)c4c(=O)[nH]3)ccc21 [6-599],2.1 nM
16,"Cc1c(C(=O)N[C@@H](C)c2cnccn2)nn2c(C)c(-c3ccc4ccccc4c3)[nH]c(=O)c12 [Example 3-66, 3,7-Dimethyl-6-(naphthalen-2-yl)-4-oxo-N-[(7S)-1-(pyrazin-2-yl)ethyl]-4,5-dihydropyrazolo[1,5-a]pyrazine-2-carboxamide]",7.45 nM
17,Cn1cnc2cc(-c3cn4nc(C(=O)N[C@@H](c5ccc(F)cc5)C(C)(C)O)c(C(F)(F)F)c4c(=O)[nH]3)ccc21 [6-659],8.55 nM
18,"Cc1cccc2ncc(-c3cn4nc(C(=O)NC(C)c5ccccn5)c(C(C)C)c4c(=O)[nH]3)cc12 (stereo not drawn) [Example 4-54, 3-Isopropyl-6-(5-methyl-3-quinolyl)-4-oxo-N-[1-(2-pyridyl)ethyl]-5H-pyrazolo[1,5-a]pyrazine-2-carboxamide]",2 nM
19,Cc1cc(-c2cn3nc(C(=O)N[C@@H](c4ccc(F)cc4)C(F)(F)CO)c(C(C)C)c3c(=O)[nH]2)ccc1Cl [6-605],3.8 nM
